{"source": "patent US6545010B2", "about": "“Composition comprising camptothecin or a camptothecin derivative and a platin derivative for the treatment of cancer” (priority 2000, dated 2003)", "key": {"[1]": {"system": "P388/CPT", "test": "Chemosensitivity of camptothecin-resistant i.p. P388/CPT leukemia, increase in life span", "type": "in vivo, mice", "conditions": "for %ILS: P388/CPT, highest non-toxic dose", "experimental": "(§1) Cross-resistance was measured in murine leukemia cell lines.\n(§2) ILS=100×[(median day of death (MDD) of treated mice)−(MDD control mice)]÷(MDD control mice)\n(§3) Table III tabulates the results from this study."}, "[2]": {"system": "P388", "test": "Chemosensitivity of P388 leukemia, increase in life span", "type": "in vivo, mice", "conditions": "P388, agent i.v., highest non-toxic dose", "experimental": "as §1, §2, §3"}, "[3]": {"system": "Colon Adenocarcinoma C51", "test": "CPT-11, cisplatin and combination, three-arm study in mice bearing colon adenocarcinoma C51", "conditions": "for LCK / HNTD Dose: C51 sc; for T/C: tumor growth delay", "experimental": "This efficacy may be quantified, for example, by the log10 cell kill, which is determined by the following formula: […]\nAn agent is considered to be active if log10 cell kill is greater than or equal to 0.7. An agent is considered to be very active if the log10 cell kill is greater than 2.8.\nIn the first arm, four dose levels of CPT-11 were given orally on days four through seven, twice daily. […] This third arm illustrated an example of semi-simultaneous administration.\nThe LD10 for the single agent was obtained by plotting the toxicity of that agent and the dosage in mg/kg as a log probit graph. Subsequently, the CTI LD10 was obtained by plotting as a log probit graph the observed lethality and the corresponding CTI calculated as the sum of the fraction of the LD10 of each single agent."}, "[4]": {"test": "Tolerance and maximum tolerated dose of oral vs i.v. irinotecan in tumor bearing mice", "type": "in vivo", "conditions": "all five tumor models, three mice strains", "experimental": "(§4) The effectiveness of irinotecan combination chemotherapy methods were tested in a dose response study in a murine tumor model. Three arms were evaluated for tolerance and efficacy. Tolerance was measured by mortality, body weight loss at nadir, host recovery time, and combination toxicity index. Efficacy end points for solid tumor models were tumor growth delay (T/C), log10 cell kill (LCK, defined above), tumor regressions (i.e., complete remission (CR), or partial remission (PR)). For non-solid tumors, such as leukemia, efficacy was measured as the increase in life span (ILS)."}, "[5]": {"system": "Glasgow osteosarcoma (GOS)", "test": "CPT-11 i.v. with oxaliplatin i.v., GOS sc", "type": "in vivo, mice", "experimental": "as §4"}, "[6]": {"system": "Glasgow osteosarcoma (GOS)", "test": "CPT-11 p.o. with oxaliplatin i.v., GOS sc", "type": "in vivo, mice", "conditions": "days 4-8", "experimental": "as §4"}, "[7]": {"conditions": "Cisplatin i.v. 1.9 mg/kg/adm, days 4, 7"}, "[8]": {"conditions": "Cisplatin i.v. 3.1 mg/kg/adm, days 4, 7"}, "[9]": {"conditions": "CPT-11 p.o. 31.5 mg/kg/adm, days 4-7 twice/day"}, "[10]": {"conditions": "CPT-11 p.o. 50.8 mg/kg/adm, days 4-7 twice/day"}}, "data": [{"smiles": "N.N.[Cl][Pt][Cl]", "note": "[Cisplatin, cis-diaminedichloroplatinum]", "values": [{"measurement": "%ILS", "setting": "[1]; agent i.v.", "result": 153, "unit": "%"}, {"measurement": "Comment (sensitivity of P388/CPT)", "setting": "[1]; agent i.v.", "result": "sensitive"}, {"measurement": "%ILS", "setting": "[2]", "result": 73, "unit": "%"}, {"measurement": "LCK", "setting": "[3]; cisplatin i.v. alone at HNTD, days 4, 7", "result": 3.3}, {"measurement": "HNTD Dose", "setting": "[3]; cisplatin i.v. alone, days 4, 7", "result": 6.2, "unit": "mg/kg"}, {"measurement": "Log10 cell kill", "setting": "[3]; [7]", "result": 1.3}, {"measurement": "Time for Median tumor to reach 1000 mg", "setting": "[3]; [7]", "result": 30.8, "unit": "days"}, {"measurement": "T/C", "setting": "[3]; [7]", "result": 11.3, "unit": "days"}, {"measurement": "Log10 cell kill", "setting": "[3]; [8]", "result": 3.3}, {"measurement": "Time for Median tumor to reach 1000 mg", "setting": "[3]; [8]", "result": 48.1, "unit": "days"}, {"measurement": "T/C", "setting": "[3]; [8]", "result": 28.6, "unit": "days"}]}, {"smiles": "CCc1c2c(nc3ccc(OC(=O)N4CCC(N5CCCCC5)CC4)cc13)-c1cc3c(c(=O)n1C2)COC(=O)[C@]3(O)CC", "note": "[CPT-11, irinotecan]", "values": [{"measurement": "Comment (sensitivity of P388/CPT)", "setting": "[1]; agent i.v.", "result": "resistant"}, {"measurement": "efficacy in tumor bearing mice, oral vs i.v. administration", "setting": "[4]", "result": "similar"}, {"measurement": "HNTD Dose", "setting": "[5]; CPT-11 i.v. alone, days 3, 5, 7 twice daily", "result": 349.8, "unit": "mg/kg"}, {"measurement": "LCK", "setting": "[3]; CPT-11 p.o. alone at HNTD, days 4-7, twice daily", "result": 1.1}, {"measurement": "HNTD Dose", "setting": "[3]; CPT-11 p.o. alone, days 4-7, twice daily", "result": 406, "unit": "mg/kg"}, {"measurement": "Comments", "setting": "[3]; [9]", "result": "Marginal Activity"}, {"measurement": "Log10 cell kill", "setting": "[3]; [9]", "result": 0.7}, {"measurement": "Time for Median tumor to reach 1000 mg", "setting": "[3]; [9]", "result": 25.5, "unit": "days"}, {"measurement": "T/C", "setting": "[3]; [9]", "result": 6.0, "unit": "days"}, {"measurement": "Time for Median tumor to reach 1000 mg", "setting": "[3]; [10]", "result": 29.4, "unit": "days"}, {"measurement": "T/C", "setting": "[3]; [10]", "result": 9.9, "unit": "days"}]}, {"smiles": "O=C1[O][Pt]2([NH][C@@H]3CCCC[C@H]3[NH]2)[O]C1=O", "note": "[Oxaliplatin, oxaliplatin]", "values": [{"measurement": "%ILS", "setting": "[1]; agent i.v.", "result": 86, "unit": "%"}, {"measurement": "Comment (sensitivity of P388/CPT)", "setting": "[1]; agent i.v.", "result": "sensitive"}, {"measurement": "LCK", "setting": "[6]; oxaliplatin i.v. alone at HNTD", "result": 2.0}, {"measurement": "HNTD Dose", "setting": "[6]; oxaliplatin i.v. alone", "result": 16.0, "unit": "mg/kg"}, {"measurement": "LCK", "setting": "[5]; oxaliplatin i.v. alone at HNTD, days 3, 5, 7", "result": 2.3}, {"measurement": "HNTD Dose", "setting": "[5]; oxaliplatin i.v. alone, days 3, 5, 7", "result": 10.2, "unit": "mg/kg"}, {"measurement": "%ILS", "setting": "[2]", "result": 0, "unit": "%"}]}, {"smiles": "CC[C@@]1(O)C(=O)OCc2c1cc1n(c2=O)Cc2cc3ccccc3nc2-1", "note": "[CPT, camptothecin]", "values": [{"measurement": "Comment (sensitivity of P388/CPT)", "setting": "[1]; agent s.c.", "result": "resistant"}]}]}
